Assay results taken from patent publication US20070249607A1, “NK-1 AND SEROTONIN TRANSPORTER INHIBITORS” (Bristol-Myers Squibb Company, priority 2006, published 2007).
pIC50: −log10 of the molar value. Read-outs that look alike come from different tables or passages of the source.

Tests used:
[1] = target: T1, neurokinin-1 (NK-1) receptor (Homo sapiens, UniProt P25103); assay: NK-1 Binding assay ([125I] Substance P competition, U373 cell membranes)
T1 construct: a human glioblastoma-astrocytoma cell line that endogenously expresses the neurokinin-1 (NK-1) receptor; endogenous in cells; host or cells: U373 human glioblastoma-astrocytoma cells (membranes)
T1 sequence (P25103 whole entry): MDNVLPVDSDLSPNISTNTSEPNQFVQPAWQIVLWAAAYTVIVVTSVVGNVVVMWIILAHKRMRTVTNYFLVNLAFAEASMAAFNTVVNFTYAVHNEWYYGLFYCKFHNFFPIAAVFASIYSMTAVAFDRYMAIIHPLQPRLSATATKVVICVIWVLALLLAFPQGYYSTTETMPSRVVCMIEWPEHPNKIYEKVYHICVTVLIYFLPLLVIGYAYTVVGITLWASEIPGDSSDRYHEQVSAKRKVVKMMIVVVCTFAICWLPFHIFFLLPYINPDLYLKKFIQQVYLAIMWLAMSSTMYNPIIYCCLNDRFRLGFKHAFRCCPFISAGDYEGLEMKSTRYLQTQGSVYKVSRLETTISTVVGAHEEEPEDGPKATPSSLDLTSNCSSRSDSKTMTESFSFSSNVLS
Protocol: NK-1 Binding assay. U373 cells, a human glioblastoma-astrocytoma cell line that endogenously expresses the neurokinin-1 (NK-1) receptor, were grown in a monolayer culture at 37° C. in 5% CO2 and fed with Minimum Essential Medium (MEM) supplemented with 10% fetal bovine serum. Membranes were prepared as follows: Cells were washed twice with ice-cold phosphate-buffered saline (pH 7.4) and then incubated for 5-10 minutes with ice-cold 10 mM Tris buffer (pH 7.4) containing 5 mM EDTA. Cells were removed from plates, homogenized, and centrifuged at 32,000×g for 20 minutes. The resulting supernatant was discarded, and the pellet resuspended by homogenization in 50 mM Tris buffer (pH 7.4) containing 1 mM EDTA and centrifuged at 32,000×g for 20 minutes. The resulting supernatant was discarded, and the pellet resuspended by homogenization in NK-1 binding assay buffer (50 mM Tris-HCL (pH 7.4), 3 mM MnCl2, 200 μg/ml BSA, 5 μg/ml chymostatin, 40 μg/ml bacitracin and 4 μg/ml leupeptin).
On the day of an experiment the membrane preparation was thawed, homogenized and diluted with NK-1 binding assay buffer to the appropriate concentration. […] Substance P, at a concentration of […], and concentrations of drugs ranging from 10000 to 0.01 nM. Samples were incubated for 30 min at 20° C. then filtered through GF/B glass fiber filters (pretreated with 1% polyethyleneimine and 0.3% Triton X-100) using a Brandel cell harvester. The filters were then washed with 10 ml ice cold 50 mM Tris-HCL (pH 7.4) containing 3 mM MgCl2. […] The amount of radioligand bound in the presence and absence of competitor was analyzed by plotting (-)log drug concentration versus the amount of radioligand specifically bound. The midpoint of the displacement curve (IC50, nM), signifies the potency.

[2] = target: T2, human serotonin transporters (Homo sapiens, UniProt P31645); assay: Serotonin transporter binding assay ([3H]-citalopram competition, HEK-hSERT cell membranes)
T2 construct: expressed in transfected cells
T2 sequence (P31645 whole entry): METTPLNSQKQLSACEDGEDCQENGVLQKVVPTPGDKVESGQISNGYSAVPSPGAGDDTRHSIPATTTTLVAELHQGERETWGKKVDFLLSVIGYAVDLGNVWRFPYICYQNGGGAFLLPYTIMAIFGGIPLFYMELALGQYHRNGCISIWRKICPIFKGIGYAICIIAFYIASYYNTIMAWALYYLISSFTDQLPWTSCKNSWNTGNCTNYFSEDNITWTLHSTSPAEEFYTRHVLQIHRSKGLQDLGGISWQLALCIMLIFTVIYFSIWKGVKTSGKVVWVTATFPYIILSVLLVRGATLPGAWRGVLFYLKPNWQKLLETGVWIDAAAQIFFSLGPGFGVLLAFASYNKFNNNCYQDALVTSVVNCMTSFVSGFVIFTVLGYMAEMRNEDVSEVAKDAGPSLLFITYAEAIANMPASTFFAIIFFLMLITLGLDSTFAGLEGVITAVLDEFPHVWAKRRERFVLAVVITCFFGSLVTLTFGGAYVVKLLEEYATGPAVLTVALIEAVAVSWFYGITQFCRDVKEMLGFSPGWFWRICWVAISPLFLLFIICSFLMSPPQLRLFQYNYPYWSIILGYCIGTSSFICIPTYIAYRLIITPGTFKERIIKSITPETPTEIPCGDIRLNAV
Protocol: Serotonin transporter binding assay. HEK-293 cells that stably express human serotonin transporters (HEK-hSERT cells) were grown at 37° C. in 5% CO2 as a monolayer in medium consisting of EMEM supplemented with 10% fetal bovine serum and G418 sulfate (500 μg/ml). To prepare membranes for radioligand binding experiments, cells were rinsed twice with phosphate-buffered saline (138 mM NaCl, 4.1 mM KCl, 5.1 mM Na2PO4, 1.5 mM KH2PO4, 11.1 mM glucose, pH 7.4). Cells were transferred from plates to polypropylene tubes (16×100 mm), centrifuged at 1,200×g for 5 min and were frozen at −80° C. until assay. Following centrifugation, pellets were resuspended by homogenization in buffer consisting of 50 mM Tris (pH 7.7 at 25° C.), 120 mM NaCl and 5 mM KCl and then centrifuged at 32,000×g for 10 min. Following centrifugation, supernatants were discarded and pellets were resuspended in buffer consisting of 50 mM Tris (pH 7.4 at 25° C.), 150 mM NaCl and 5 mM KCl. Membrane homogenates (200 μl/plate) were incubated with 1 nM [^3H]-citalopram (specific activity=85 Ci/mmol) and increasing concentrations of test compounds for 1 hr at 25° C. in a total volume of 250 μl. The assay buffer consisted of 50 mM Tris (pH 7.4 at 25° C.), 120 mM NaCl and 5 mM KCl (pH 7.4 with conc. HCl). Plates were incubated for 1 hr at 25° C., then filtered through 0.5% PEI treated Whatman GF/B filters using a Brandel cell harvester. Filters were washed three times with 3 ml of ice-cold tris wash buffer. Non-specific binding was defined with 10 μM fluoxetine. Amount of radioligand bound in the presence and absence of competitor was analyzed by plotting (-)log drug concentration versus the amount of radioligand specifically bound. The midpoint of the displacement curve (IC50, nM), signifies the potency. Ki values can be calculated using the method of Cheng and Prusoff (Cheng and Prusoff, BiochemicalPharmacology, Vol 22, pp. 3099-3108, Pergamon Press (1973)).

[3] = Table 2, U373 membranes, [125I] Substance P displacement, read-out: NK-1 IC50
[4] = Table 2, HEK-hSERT membranes, [3H]-citalopram displacement, read-out: SERT IC50
[5] = Table 1, U373 membranes, [125I] Substance P displacement, read-out: NK-1 IC50
[6] = Table 1, HEK-hSERT membranes, [3H]-citalopram displacement, read-out: SERT IC50

| Structure (SMILES) | pIC50 [1, 3] | pIC50 [2, 4] | pIC50 [1, 5] | pIC50 [2, 6] | other results |
| --- | --- | --- | --- | --- | --- |
| Oc1cc(COCC2(c3ccccc3)CCNCC2)cc(-c2ccc(F)cc2)c1 | < 6.52 | 7.00 to 11.00 | – | – | – |
| N#Cc1ccc(-c2cc(COCC3(c4cccc(Cl)c4)CCNCC3)cc(C(F)(F)F)c2)cc1 | 7.00 to 11.00 | 7.00 to 11.00 | – | – | – |
| CN1CCC(COCc2cc(-c3ccc(C#N)cc3)cc(C(F)(F)F)c2)(c2ccc(-c3ccco3)cc2)CC1 | 7.00 to 11.00 | – | – | – | pIC50 [2]: 6.52 to 7.00 |
| O=[N+]([O-])c1ccc(-c2cc(COCC3(c4ccccc4)CCNCC3)cc(C(F)(F)F)c2)cc1 | 7.00 to 11.00 | 7.00 to 11.00 | – | – | – |
| CCN1CCC(COCc2cc(-c3ccc(C#N)cc3)cc(C(F)(F)F)c2)(c2ccccc2)CC1 | 7.00 to 11.00 | < 6.52 | – | – | – |
| FC(F)(F)c1cc(COCC2(c3ccccc3)CCNCC2)cc(-c2ccc(Cl)c(Cl)c2)c1 | – | – | 7.00 to 11.00 | 7.00 to 11.00 | – |
| N#Cc1ccc(-c2cc(COCC3(c4ccccc4)CCNCC3)cc(C(F)(F)F)c2)cn1 | – | – | 7.00 to 11.00 | 7.00 to 11.00 | – |
| Cc1cc(C)cc(-c2cc(COCC3(c4ccccc4)CCNCC3)cc(C(F)(F)F)c2)c1 | – | – | < 6.52 | 7.00 to 11.00 | – |
| FC(F)(F)c1cc(COCC2(c3ccccc3)CCNCC2)cc(-c2ccccc2-c2ccccc2)c1 | – | – | < 6.52 | 6.52 to 7.00 | – |
| CC(C)N1CCC(COCc2cc(-c3ccc(C#N)cc3)cc(C(F)(F)F)c2)(c2ccccc2)CC1 | – | < 6.52 | – | – | pIC50 [1]: 7.00 to 11.00 |
| CSc1ccccc1-c1cc(COCC2(c3ccccc3)CCNCC2)cc(C(F)(F)F)c1 | – | – | 6.52 to 7.00 | 7.00 to 11.00 | – |
| FC(F)(F)c1cc(COCC2(c3ccccc3)CCNCC2)cc(-c2ccccc2Cl)c1 | – | – | 7.00 to 11.00 | 7.00 to 11.00 | – |
| CN1CCC(COCc2cc(-c3cc(F)c(C#N)c(F)c3)cc(C(F)(F)F)c2)(c2ccccc2)CC1 | 7.00 to 11.00 | – | – | – | pIC50 [2]: 7.00 to 11.00 |
| N#Cc1ccc(-c2cc(COCC3(c4ccc(F)c(F)c4)CCNCC3)cc(C(F)(F)F)c2)cc1 | 7.00 to 11.00 | 7.00 to 11.00 | – | – | – |
| Cc1cc(-c2cc(COCC3(c4ccccc4)CCNCC3)cc(C(F)(F)F)c2)ccc1C#N | 7.00 to 11.00 | 7.00 to 11.00 | – | – | – |
| FC(F)(F)c1cc(COCC2(c3ccccc3)CCNCC2)cc(-c2ccccc2)c1 | – | – | 7.00 to 11.00 | 7.00 to 11.00 | – |
| CC(C)Oc1ccc(-c2cc(COCC3(c4ccccc4)CCNCC3)cc(C(F)(F)F)c2)cc1 | 6.52 to 7.00 | 6.52 to 7.00 | – | – | – |
| CN1CCC(COCc2cc(-c3ccc(F)cc3)cc(C(F)(F)F)c2)(c2ccc(F)cc2)CC1 | 7.00 to 11.00 | – | – | – | pIC50 [2]: 7.00 to 11.00 |
| CCOC(=O)c1cccc(-c2cc(COCC3(c4ccccc4)CCNCC3)cc(C(F)(F)F)c2)c1 | 6.52 to 7.00 | 7.00 to 11.00 | – | – | – |
| Fc1cc(F)cc(-c2cc(COCC3(c4ccccc4)CCNCC3)cc(C(F)(F)F)c2)c1 | – | – | 7.00 to 11.00 | 7.00 to 11.00 | – |
| CN1CCC(COCc2cc(-c3ccc(C#N)cc3)cc(C(F)(F)F)c2)(c2ccc(Br)cc2)CC1 | 7.00 to 11.00 | – | – | – | pIC50 [2]: 7.00 to 11.00 |
| Oc1cccc(-c2cc(COCC3(c4ccccc4)CCNCC3)cc(C(F)(F)F)c2)c1 | – | – | 7.00 to 11.00 | 7.00 to 11.00 | – |
| FC(F)(F)Oc1cccc(-c2cc(COCC3(c4ccccc4)CCNCC3)cc(C(F)(F)F)c2)c1 | < 6.52 | 7.00 to 11.00 | – | – | – |
| Cn1nnc(-c2cc(COCC3(c4ccccc4)CCNCC3)cc(C(F)(F)F)c2)n1 | – | – | 7.00 to 11.00 | 7.00 to 11.00 | – |
| FC(F)(F)c1cc(COCC2(c3ccccc3)CCNCC2)cc(-c2cccc(OCc3ccccc3)c2)c1 | 7.00 to 11.00 | 7.00 to 11.00 | – | – | – |
| FC(F)(F)c1cc(COCC2(c3ccccc3)CCNCC2)cc(-c2cccc3c2Sc2ccccc2S3)c1 | – | – | < 6.52 | < 6.52 | – |
